Measurements published in publication PMC12121777 (PLOS One, 2025).
In brackets after ≈: the same amount, converted by molar mass. Where two headings read alike, the source gives them in different places.

Key:
Mtb 331/88 (i.e., H37Rv) = experiment: MIC, micro method in Šula's semisynthetic medium, drug-susceptible Mtb; type: cell-based, Mycobacterium tuberculosis; conditions: for MIC: Mycobacterium tuberculosis, H37RV
[1] = tested on: Mycobacterium kansasii 6509/96; experiment: MIC, micro method in Šula's semisynthetic medium, M. kansasii clinical isolate; type: cell-based; conditions: read-out: MIC M. kansasii 6509/96
[2] = tested on: Mycobacterium avium 330/88; experiment: MIC, micro method in Šula's semisynthetic medium, M. avium; type: cell-based
HepG2 cells = experiment: Cytotoxicity on HepG2 cell line (CellTiter 96); type: cell-based, human; conditions: for IC50: read-out: IC50 HepG2
[3] = 330/88, 336 h, read-out: MIC M. avium 330/88
[4] = 330/88, 504 h, read-out: MIC M. avium 330/88

Compound | MIC (Mtb 331/88 (i.e., H37Rv); 336 h, 14 days) [µM] | MIC (Mtb 331/88 (i.e., H37Rv); 504 h, 21 days) [µM] | MIC ([1]; 6509/96, 168 h) [µM] | MIC ([1]; 6509/96, 336 h) [µM] | MIC ([1]; 6509/96, 504 h) [µM] | MIC [2, 3] [µM] | MIC [2, 4] [µM] | MIC ([2]; 330/88, read-out: MIC M. avium) [µM] | IC50 (HepG2 cells; Homo sapiens, HepG2, 24 h) [µM] | IC50 (HepG2 cells) [µM] | fold more potent than precursor 4 against Mtb (Mtb 331/88 (i.e., H37Rv); oxadiazole 5 vs hydrazinecarboxamide 4 counterpart) [fold] | selectivity (SI) for M. avium (HepG2 cells; ratio of IC50 (HepG2) to MIC)
CCCCCCCCCNC(=O)NNC(=O)c1cc([N+](=O)[O-])cc([N+](=O)[O-])c1 [Compound 4i, 2-(3,5-Dinitrobenzoyl)-N-nonylhydrazine-1-carboxamide] | 0.5 (≈ 0.198 µg/mL) | 1 (≈ 0.395 µg/mL) | 1 (≈ 0.395 µg/mL) | 1 (≈ 0.395 µg/mL) | 1 (≈ 0.395 µg/mL) | 125 (≈ 49.4 µg/mL) | 250 (≈ 98.9 µg/mL) | 125 to 250 (≈ 49.4 to 98.9 µg/mL) | 125 |  |  | 
CCCCCCCCCCNC(=O)NNC(=O)c1cc([N+](=O)[O-])cc([N+](=O)[O-])c1 [Compound 4j, N-Decyl-2-(3,5-dinitrobenzoyl)hydrazine-1-carboxamide] | 1 (≈ 0.409 µg/mL) | 1 (≈ 0.409 µg/mL) | 1 (≈ 0.409 µg/mL) | 2 (≈ 0.819 µg/mL) | 4 (≈ 1.64 µg/mL) | > 500 | > 500 |  | 141 |  |  | 
CCCCCCCCCCCNC(=O)NNC(=O)c1cc([N+](=O)[O-])cc([N+](=O)[O-])c1 [Compound 4k, 2-(3,5-Dinitrobenzoyl)-N-undecylhydrazine-1-carboxamide] | 1 (≈ 0.423 µg/mL) | 1 (≈ 0.423 µg/mL) | 2 (≈ 0.847 µg/mL) | 4 (≈ 1.69 µg/mL) | 4 (≈ 1.69 µg/mL) | > 500 | > 500 |  | < 100 | 99.9 |  | 
CCCCCCCCCCCCNC(=O)NNC(=O)c1cc([N+](=O)[O-])cc([N+](=O)[O-])c1 [Compound 4l, 2-(3,5-Dinitrobenzoyl)-N-dodecylhydrazine-1-carboxamide] | 2 (≈ 0.875 µg/mL) | 2 (≈ 0.875 µg/mL) | 2 (≈ 0.875 µg/mL) | 2 (≈ 0.875 µg/mL) | 4 (≈ 1.75 µg/mL) | > 250 | > 250 |  | 166 |  |  | 
CCCCCCCCCCCCCNC(=O)NNC(=O)c1cc([N+](=O)[O-])cc([N+](=O)[O-])c1 [Compound 4m, 2-(3,5-Dinitrobenzoyl)-N-tridecylhydrazine-1-carboxamide] | 2 (≈ 0.903 µg/mL) | 4 (≈ 1.81 µg/mL) | 2 (≈ 0.903 µg/mL) | 2 (≈ 0.903 µg/mL) | 4 (≈ 1.81 µg/mL) | > 500 | > 500 |  | 163 |  |  | 
CCCCCCCCCCCCCCNC(=O)NNC(=O)c1cc([N+](=O)[O-])cc([N+](=O)[O-])c1 [Compound 4n, 2-(3,5-Dinitrobenzoyl)-N-tetradecylhydrazine-1-carboxamide] | 4 (≈ 1.86 µg/mL) | 8 (≈ 3.72 µg/mL) | 4 (≈ 1.86 µg/mL) | 8 (≈ 3.72 µg/mL) | 8 (≈ 3.72 µg/mL) | > 500 | > 500 |  | 207 |  |  | 
CCCCCCCCCCCCCCCNC(=O)NNC(=O)c1cc([N+](=O)[O-])cc([N+](=O)[O-])c1 [Compound 4o, 2-(3,5-Dinitrobenzoyl)-N-pentadecylhydrazine-1-carboxamide] | 8 (≈ 3.84 µg/mL) | 16 (≈ 7.67 µg/mL) | 8 (≈ 3.84 µg/mL) | 8 (≈ 3.84 µg/mL) | 16 (≈ 7.67 µg/mL) | > 500 | > 500 |  | < 100 | 82.5 |  | 
CCCCNc1nnc(-c2cc([N+](=O)[O-])cc([N+](=O)[O-])c2)o1 [Compound 5d, N-Butyl-5-(3,5-dinitrophenyl)-1,3,4-oxadiazol-2-amine] | 0.5 (≈ 0.154 µg/mL) | 0.5 (≈ 0.154 µg/mL) | 1 (≈ 0.307 µg/mL) | 2 (≈ 0.615 µg/mL) | 2 (≈ 0.615 µg/mL) | 64 (≈ 19.7 µg/mL) | 125 (≈ 38.4 µg/mL) |  | > 250 |  |  | 
CCCCCNc1nnc(-c2cc([N+](=O)[O-])cc([N+](=O)[O-])c2)o1 [Compound 5e, 5-(3,5-Dinitrophenyl)-N-pentyl-1,3,4-oxadiazol-2-amine] | 0.25 (≈ 0.0803 µg/mL) | 0.25 (≈ 0.0803 µg/mL) | 0.25 (≈ 0.0803 µg/mL) | 0.5 (≈ 0.161 µg/mL) | 0.5 (≈ 0.161 µg/mL) | > 500 | > 500 |  | > 250 |  |  | 
CCCCCCNc1nnc(-c2cc([N+](=O)[O-])cc([N+](=O)[O-])c2)o1 [Compound 5f, 5-(3,5-Dinitrophenyl)-N-hexyl-1,3,4-oxadiazol-2-amine] | ≤ 0.03 | ≤ 0.03 | 0.25 (≈ 0.0838 µg/mL) | 0.5 (≈ 0.168 µg/mL) | 0.5 (≈ 0.168 µg/mL) | ≤ 1 | ≤ 1 | 1 (≈ 0.335 µg/mL) | > 100 |  | ≥ 33.3 | > 100
CCCCCCCCNc1nnc(-c2cc([N+](=O)[O-])cc([N+](=O)[O-])c2)o1 [Compound 5h, 5-(3,5-Dinitrophenyl)-N-octyl-1,3,4-oxadiazol-2-amine] | 0.06 (≈ 0.0218 µg/mL) | 0.06 (≈ 0.0218 µg/mL) | ≤ 0.03 | 0.06 (≈ 0.0218 µg/mL) | 0.06 (≈ 0.0218 µg/mL) | 8 (≈ 2.91 µg/mL) | 16 (≈ 5.81 µg/mL) |  | > 100 |  |  | 
CCCCCCCCCNc1nnc(-c2cc([N+](=O)[O-])cc([N+](=O)[O-])c2)o1 [Compound 5i, 5-(3,5-Dinitrophenyl)-N-nonyl-1,3,4-oxadiazol-2-amine] | 0.06 (≈ 0.0226 µg/mL) | 0.06 (≈ 0.0226 µg/mL) | ≤ 0.03 | 0.06 (≈ 0.0226 µg/mL) | 0.06 (≈ 0.0226 µg/mL) | 8 (≈ 3.02 µg/mL) | 16 (≈ 6.04 µg/mL) |  | > 100 |  |  | 
CCCCCCCCCCNc1nnc(-c2cc([N+](=O)[O-])cc([N+](=O)[O-])c2)o1 [Compound 5j, N-Decyl-5-(3,5-dinitrophenyl)-1,3,4-oxadiazol-2-amine] | 0.5 (≈ 0.196 µg/mL) | 1 (≈ 0.391 µg/mL) | 1 (≈ 0.391 µg/mL) | 1 (≈ 0.391 µg/mL) | 1 (≈ 0.391 µg/mL) | 4 (≈ 1.57 µg/mL) | 8 (≈ 3.13 µg/mL) |  | > 100 |  |  | 
CCCCCCCCCCCNc1nnc(-c2cc([N+](=O)[O-])cc([N+](=O)[O-])c2)o1 [Compound 5k, 5-(3,5-Dinitrophenyl)-N-undecyl-1,3,4-oxadiazol-2-amine] | 0.5 (≈ 0.203 µg/mL) | 1 (≈ 0.405 µg/mL) | 1 (≈ 0.405 µg/mL) | 1 (≈ 0.405 µg/mL) | 1 (≈ 0.405 µg/mL) | 4 (≈ 1.62 µg/mL) | 4 (≈ 1.62 µg/mL) |  | > 50 |  |  | 
CCCCCCCCCCCCNc1nnc(-c2cc([N+](=O)[O-])cc([N+](=O)[O-])c2)o1 [Compound 5l, 5-(3,5-Dinitrophenyl)-N-dodecyl-1,3,4-oxadiazol-2-amine] | 1 (≈ 0.419 µg/mL) | 1 (≈ 0.419 µg/mL) | 1 (≈ 0.419 µg/mL) | 1 (≈ 0.419 µg/mL) | 1 (≈ 0.419 µg/mL) | 4 (≈ 1.68 µg/mL) | 8 (≈ 3.36 µg/mL) |  | > 50 |  |  | 
CCCCCCCCCCCCCNc1nnc(-c2cc([N+](=O)[O-])cc([N+](=O)[O-])c2)o1 [Compound 5m, 5-(3,5-Dinitrophenyl)-N-tridecyl-1,3,4-oxadiazol-2-amine] | 0.125 (≈ 0.0542 µg/mL) | 0.5 (≈ 0.217 µg/mL) | ≤ 0.03 | 0.06 (≈ 0.026 µg/mL) | 0.125 (≈ 0.0542 µg/mL) | 8 (≈ 3.47 µg/mL) | 16 (≈ 6.94 µg/mL) |  | > 50 |  |  | 
CCCCCCCCCCCCCCNc1nnc(-c2cc([N+](=O)[O-])cc([N+](=O)[O-])c2)o1 [Compound 5n, 5-(3,5-Dinitrophenyl)-N-tetradecyl-1,3,4-oxadiazol-2-amine] | 1 (≈ 0.448 µg/mL) | 1 (≈ 0.448 µg/mL) | 0.25 (≈ 0.112 µg/mL) | 0.5 (≈ 0.224 µg/mL) | 1 (≈ 0.448 µg/mL) | 8 (≈ 3.58 µg/mL) | 16 (≈ 7.16 µg/mL) |  | > 50 |  |  | 
CCCCCCCCCCCCCCCNc1nnc(-c2cc([N+](=O)[O-])cc([N+](=O)[O-])c2)o1 [Compound 5o, 5-(3,5-Dinitrophenyl)-N-pentadecyl-1,3,4-oxadiazol-2-amine] | 2 (≈ 0.923 µg/mL) | 2 (≈ 0.923 µg/mL) | 0.5 (≈ 0.231 µg/mL) | 1 (≈ 0.462 µg/mL) | 2 (≈ 0.923 µg/mL) | 8 (≈ 3.69 µg/mL) | 16 (≈ 7.39 µg/mL) |  | > 50 |  |  | 
